Source: patent US20190352664A1, “COMPOSITIONS AND METHODS FOR CONTROLLING GENE EXPRESSION” (priority 2017, published 2019)

B1: AT2G34630.1: 5′ UTR of transcript; geranyl diphosphate synthase 1 (nucleic acid)
DNA: AAGCGAACAAGTCTTTGCCTCTTTGGTTTACTTTCCTCTGTTTTCGATCCATTTAGAAAATGTTATTCACGAGGAGTGTTGCTCGGATTTCTTCTAAGTTTCTGAGAAACCGTAGCTTCTATGGCTCCTCTCAATCTCTCGCCTCTCATCGGTTCGCAATCATTCCCGATCAGGGTCACTCTTGTTCTGACTCTCCACACAAGTAGGGTTACGTTTGCAGAACAACTTATTCATTGAAATCTCCGGTTTTTGGTGGATTTAGTCATCAACTCTATCACCAGAGTAGCTCCTTGGTTGAGGAGGAGCTTGACCCATTTTCGCTTGTTGCCGATGAGCTGTCACTTCTTAGTAATAAGTTGAGAGAG
B2: AT1G59990.1_1: uORF of AT1G59990.1; peptide SEQ ID NO: 8 (nucleic acid)
DNA: ATGAAGAGAGAGACTGAAACAGAGGTTTCTTACTTTCTTCTCTGTATCTCTCATATTTTGCTTAAACCCTAA
modifications: listed as DNA, chemistry not fully specified
B3: AT1G59700.1_1: uORF of AT1G59700.1; peptide SEQ ID NO: 7 (nucleic acid)
DNA: ATGATATGTCCGTTTAGAAACAGACAAAATAAGAAGAAGAAGAAAGAGTCGTGGAGGATTCTTCATTCTTCCTCATCCTCTTCTTCACCGATTCATTAG
modifications: listed as DNA, chemistry not fully specified
B4: AT1G59990.1: 5′ UTR of transcript; DEA(D/H)-box RNA helicase family protein (nucleic acid)
DNA: AGTGAGCTAATGAAGAGAGAGACTGAAACAGAGGTTTCTTACTTTCTTCTCTGTATCTCTCATATTTTGCTTAAACCCTAAAACCCTTTTTGGATTAGGTTTTCTCCAAATCTTATCCGCCGTGATAAAATCTGATTGCTTTTTTTCTTCATGAAAGTTTGATTTGTGAAACTCG
B5: AT1G72390.1: 5′ UTR of transcript (nucleic acid)
DNA: CCTTTCTCTTCCGATCGCATCTTCTTCAAAAATTTCCCACCTGTGTTTCACAAATTCCATGTTTATGAATTCTTCATTGCTCTATTCTTAGTCACCTTTGATTTCTCTCGCTTTCTATCCGATCCAATTGTTTGATGATCTTCTCTGTAACAAGCTCATAAGGTTTGAGCTTCATCTCTCTGGAGAGAATCC

Test system: Arabidopsis
Experiment: Ribo-seq and RNA-seq global translatome profiling (translational efficiency TE, mORF/uORF ribo-shift) upon elf18 treatment
Format: in vivo
Parameters: key to score (Ribo-shift): Up: ribo-shift up (i.e., increased mORF/uORF ratio); Down: ribo-shift down (i.e., decreased mORF/uORF ratio)
Settings: elf18 vs Mock; for score (Ribo-shift): shift of mORF/uORF ratio, per uORF; for score (TE change): translational efficiency fold change, listed as shows 5′ UTR of the transcript

Molecule	score (Ribo-shift)	score (TE change)
AT1G12580.1_1: uORF of AT1G12580.1; peptide SEQ ID NO: 1 (DNA ATGCAGCTTGCGATTTCATAG; listed as DNA, chemistry not fully specified)	Up	–
AT1G19270.1_3: uORF of AT1G19270.1; peptide SEQ ID NO: 3 (DNA ATGAGCAGATAG; listed as DNA, chemistry not fully specified)	Down	–
AT1G30330.1_1: uORF of AT1G30330.1; peptide SEQ ID NO: 4 (DNA ATGTTCTGCAACAGTTGA; listed as DNA, chemistry not fully specified)	Up	–
AT1G30330.13: uORF of AT1G30330.1; peptide SEQ ID NO: 5 (DNA ATGAGTGGGGTGGATTAA; listed as DNA, chemistry not fully specified)	Down	–
AT1G48300.1: 5′ UTR of transcript (DNA CGAGATGCGGCGAGGAGAAAGAGAAGGTTAAGGTT; listed as DNA, chemistry not fully specified)	–	TEup (448 had increased TEfc)
AT1G72390.1_1: uORF of AT1G72390.1; peptide SEQ ID NO: 9 (DNA ATGTTTATGAATTCTTCATTGCTCTATTCTTAG; listed as DNA, chemistry not fully specified)	Down	–
AT2G34630.1_2: uORF of AT2G34630.1; peptide SEQ ID NO: 10 (DNA ATGAGCTGTCACTTCTTAGTAATAAGTTGA; listed as DNA, chemistry not fully specified)	Up	–
AT2G42950.1_1: uORF of AT2G42950.1; peptide SEQ ID NO: 12 (DNA ATGATCTTACGTGAAATTGCAGCCTAA; listed as DNA, chemistry not fully specified)	Down	–
AT2G47210.1_1: uORF of AT2G47210.1; peptide SEQ ID NO: 13 (DNA ATGATAGCTACCCAGTAA; listed as DNA, chemistry not fully specified)	Up	–
AT3G02570.1_2: uORF of AT3G02570.1; peptide SEQ ID NO: 14 (DNA ATGCTTGAGATATTTTGTTTTTACCTCCGAGAAACGGATTTAGATTCGTAA; listed as DNA, chemistry not fully specified)	Down	–
AT3G03070.1_1: uORF of AT3G03070.1; peptide SEQ ID NO: 15 (DNA ATGCGTTGTTTGGTACAGCTTCACGAACAATCTCTCTCTCGATAG; listed as DNA, chemistry not fully specified)	Down	–
AT3G15030.1_2: uORF of AT3G15030.1; peptide SEQ ID NO: 16 (DNA ATGGGTTAG; listed as DNA, chemistry not fully specified)	Down	–
AT3G18140.1_2: uORF of AT3G18140.1; peptide SEQ ID NO: 17 (DNA ATGGTTGGTTTAATATTTCAATCGGGATAA; listed as DNA, chemistry not fully specified)	Down	–
AT3G56010.1_1: uORF of AT3G56010.1; peptide SEQ ID NO: 19 (DNA ATGCGTCGCTCTTAA; listed as DNA, chemistry not fully specified)	Up	–
AT3G63340.1_1: uORF of AT3G63340.1; peptide SEQ ID NO: 20 (DNA ATGAAGCAATTGTTCCTTTCAAGCATGTTTACGAGCAAAAGAGTGAAAGGGTAG; listed as DNA, chemistry not fully specified)	Down	–
AT4G11110.1_1: uORF of AT4G11110.1; peptide SEQ ID NO: 21 (DNA ATGATTGGCTTCTCACGATTCGATTTTTCCGGCTCCTGTTCTTAA; listed as DNA, chemistry not fully specified)	Up	–
AT4G17840.1_4: uORF of AT4G17840.1; peptide SEQ ID NO: 22 (DNA ATGTTATAA; listed as DNA, chemistry not fully specified)	Up	–
AT4G18570.1_1: uORF of AT4G18570.1; peptide SEQ ID NO: 23 (DNA ATGCTTTTAATTTCCATGCAAATCTCTCCTTTCTTCTCAAGTCATTTTTGA; listed as DNA, chemistry not fully specified)	Up	–

Molecule	score (Ribo-shift)	score (TE change)
AT4G23740.1_1: uORF of AT4G23740.1; peptide SEQ ID NO: 24 (DNA ATGCCAAAAAATAAGAACAAAATTATATCCGTTGCTTGA; listed as DNA, chemistry not fully specified)	Up	–
AT4G23740.1_2: uORF of AT4G23740.1; peptide SEQ ID NO: 25 (DNA ATGGCGGTTCTTCACATTATCTTCACTGCGTAA; listed as DNA, chemistry not fully specified)	Down	–
AT4G26080.1_3: uORF of AT4G26080.1; peptide SEQ ID NO: 27 (DNA ATGTGTTTCTTCTTGTCTTCCTAG; listed as DNA, chemistry not fully specified)	Down	–
AT4G32660.1_1: uORF of AT4G32660.1; peptide SEQ ID NO: 28 (DNA ATGTCGTCGCGGTTCGACCCCAAGGGATTTGGCCGGTAA; listed as DNA, chemistry not fully specified)	Down	–
AT4G32800.1_1: uORF of AT4G32800.1; peptide SEQ ID NO: 29 (DNA ATGATAGAAACAAGAACTATCTTTTTATAA; listed as DNA, chemistry not fully specified)	Down	–
AT4G34460.1_1: uORF of AT4G34460.1; peptide SEQ ID NO: 30 (DNA ATGAACCTTCTTCTCTTCTAG; listed as DNA, chemistry not fully specified)	Up	–
AT4G37925.1_1: uORF of AT4G37925.1; peptide SEQ ID NO: 31 (DNA ATGGTTCTGTAA; listed as DNA, chemistry not fully specified)	Riboshift Down ATGGTTCTGTAA (SEQ ID	–
AT4G38950.1_1: uORF of AT4G38950.1; peptide SEQ ID NO: 32 (DNA ATGTGCCCCAAAAGATAA; listed as DNA, chemistry not fully specified)	Down	–
AT5G11790.1_1: uORF of AT5G11790.1; peptide SEQ ID NO: 33 (DNA ATGGAAAGATAA; listed as DNA, chemistry not fully specified)	Down	–
AT5G14930.1_1: uORF of AT5G14930.1; peptide SEQ ID NO: 34 (DNA ATGGACTCTCGTTCTCAGACATTTATTTCTCTCAGTCTTACAATATAA; listed as DNA, chemistry not fully specified)	Down	–
AT5G57460.1_1: uORF of AT5G57460.1; peptide SEQ ID NO: 37 (DNA ATGTTTCAATCTAACCATTGA; listed as DNA, chemistry not fully specified)	Up	–
AT1700.1_1: uORF of AT1G16700.1; peptide SEQ ID NO: 2 (DNA ATGTTCTTGTGA; listed as DNA, chemistry not fully specified)	Down	–
ATG48300.1_1: uORF of AT1G48300.1; peptide SEQ ID NO: 6 (DNA ATGCGGCGAGGAGAAAGAGAAGGTTAA; listed as DNA, chemistry not fully specified)	Up	–
B1	–	TEup (448 had increased TEfc)
B2	Down	–
B3	Down	–
B4	–	TEdown (389 genes displayed decreased TEfc (|z|≥1.5))
B5	–	TEup (448 had increased TEfc)
